Ends that are not written are not given here.
Assays:
[1] = system: A. baumannii BAA-1793; conditions: determined by ATCC according to CLSI guidelines, ref ATCC; cited from earlier work
Text: Supplement 41598_2021_86155_MOESM1_ESM.docx, table 3: Table S3. Supplementary information about the resistance pattern of the bacterial strain A. baumannii BAA-1793 used in the Minimum Inhibitory Concentration study presented in Table 1.

[2] = system: Klebsiella pneumoniae; assay: VITEK 2 antimicrobial sensitivity characterization; type: cell-based; conditions: VITEK 2 system, CLSI ranges
Description: (§1) This experiment was conducted by Omnix Medical, by JMI Laboratories (North Liberty, IA, USA) and by Aptuit (Verona) S.r.l. (Italy), an Evotec Company. All studies were performed according to Clinical and Laboratory Standards Institute guidelines[30] for the application of the broth microdilution method. Reference strains from American Type Culture Collection (ATCC) and clinical isolates from the Evotec EvostrAIn and the JMI Laboratories SENTRY surveillance program culture collections (Acinetobacter baumannii: ACC 00445, ACC 00527, ACC 00535, ATCC 17978, ATCC 19606, ATCC BAA-1793, ACC 01076, ACC 01077, NCTC 13420, JMI #1088100 and JMI #1001007; Klebsiella pneumoniae: ATCC 43816 and ATCC BAA-1705; Escherichia coli: ACC 01001 and ATCC 25922; Staphylococcus aureus: ATCC 29213, ATCC BAA-44 and ATCC 33591; Bacillus cereus: ATCC 14579; Enterococcus faecalis: ATCC 29212; Enterococcus faecium: ATCC BAA-2319) were used. The antimicrobial activity of OMN6 was determined by 12 serial two-fold dilutions in water of the 100-fold highest compound solution; 1 µL of each well was transferred into 96 microtiter plates (final concentration: 256–0.12 µg/mL). In most strains, same procedure was used to determine the colistin antimicrobial activity (final concentration: 32–0.015 µg/mL). Bacterial strains were sub-cultured on the agar plates and incubated for 18–24 h at 35 ± 2 °C in ambient air. Following incubation, the inoculum was prepared from isolated colonies and adjusted to 0.5 McFarland turbidity standard (1 to 2 × 10^8 colony-forming units/mL) in 0.9% saline. Bacterial suspension was then diluted 1:200 in Muller-Hinton broth (from BD; Becton, Dickinson and Company, Franklin Lakes, NJ, USA) and within 15 min 100 µL/well were dispensed. Growth-control wells and sterility-check wells (uninoculated well) were present in each plate. Plates were incubated for 18–24 h at 35 ± 2 °C in ambient air. […] The antimicrobial activity to other antibiotics on most bacterial strains was determined by Evotec using the antimicrobial sensitive test from the VITEK 2 automated microbiology system (bioMérieux SA, Marcy l'Etoile, France; data presented in Table S1), or by ATCC according to CLSI (Clinical and Laboratory Standards Institute) guidelines[30]
(§2) Table S1. Supplementary information about the resistance pattern of 14 bacterial strains used in the Minimum Inhibitory Concentration study presented in Table 1. The resistance pattern of the different bacterial isolates was characterized by broth microdilution studies (for colistin) or with the VITEK 2 system (for the other antibiotics).

[3] = system: Acinetobacter baumannii; assay: VITEK 2 antimicrobial sensitivity characterization; type: cell-based; conditions: VITEK 2 system, CLSI ranges
Description: as §1, §2

[4] = system: Escherichia coli; assay: VITEK 2 antimicrobial sensitivity characterization; type: cell-based; conditions: VITEK 2 system, CLSI ranges
Description: as §1, §2

[5] = system: Staphylococcus aureus; assay: VITEK 2 antimicrobial sensitivity characterization; type: cell-based; conditions: VITEK 2 system, CLSI ranges
Description: as §1, §2

[6] = system: HEK293T cells; type: cell-based
Description: HEK-293T17 cells (ATCC CRL-1573) were purchased from ATCC and cultured to 80% confluency according to the ATCC culture method, using high-glucose and L-Glutamine Dulbecco's Modified Eagle Medium (DMEM) medium (ATCC catalog number 30-2002) supplemented with 10% fetal bovine serum and 1% Penicillin–Streptomycin solution (all from Biological Industries). For the experiment purposes, 30,000 cells were transferred to a 96-well plate (experiment plate) in a final volume of 100 µL of medium. The experiment plate was incubated at 5% CO2 and 37 °C for approximately 18 h. After 18 h, medium was discarded, and cells were co-incubated with OMN6, Melittin (Sigma-Aldrich) or dimethyl sulfoxide (DMSO; MP Biomedical LLC, Solon, OH, USA) that were prepared in new medium at desired concentrations. The experiment plate was incubated at 5% CO2 and 37 °C for 24 h. Then, glutaraldehyde at a final concentration of 0.5% was added in all wells for 10 min for cell fixation. After washing the plate 3 times with DDW, the experiment plate was dried overnight. Then, cells were washed with 0.1 M Borate buffer (pH = 8.5) for 1 min. 100 µL Methylene Blue diluted in the same Borate buffer was added to all wells for 1 h. Wells were washed with DDW and plate was dried overnight. Color extraction was executed by adding 0.1 M HCl. After an incubation at 37 °C for 1 h, cell survival was determined via absorbance at 620 nm using a microplate reader.

[7] = target: T1, Proteinase-K (Parengyodontium album, UniProt P06873); assay: Peptide stability to Proteinase-K (SDS-PAGE); type: in vitro ADME; conditions: 10 µg peptide with 5 or 20 ng Proteinase-K (0.16 or 0.66 µg/mL), 2 h, 37 °C; 15% acrylamide SDS-PAGE, Coomassie stain
T1 construct: purchased Sigma-Aldrich
T1 sequence (P06873 106-384): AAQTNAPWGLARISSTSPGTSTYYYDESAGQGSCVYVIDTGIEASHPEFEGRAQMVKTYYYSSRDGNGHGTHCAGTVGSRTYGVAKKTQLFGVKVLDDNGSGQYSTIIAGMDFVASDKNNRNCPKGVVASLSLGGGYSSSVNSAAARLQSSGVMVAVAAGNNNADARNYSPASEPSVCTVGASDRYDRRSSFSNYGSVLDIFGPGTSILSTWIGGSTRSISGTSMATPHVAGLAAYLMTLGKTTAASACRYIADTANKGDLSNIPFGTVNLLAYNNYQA
Description: 10 µg of synthetic cecropin A (Genscript, Piscataway, NJ, USA), OMN6, or bovine serum albumin (BSA; Sigma-Aldrich, St. Louis, MO, USA) were incubated with 5 or 20 ng Proteinase-K (Sigma-Aldrich; final treatment concentration of 0.16 or 0.66 µg/mL respectively) for 2 h at 37 °C, and separated on a 15% acrylamide gel (Bio-Rad, Hercules, CA, USA) by SDS-PAGE. The gel was then stained with Coomassie dye and excess color was removed over-night.

**Q.** For `CC(C)(O/N=C(\C(=O)N[C@@H]1C(=O)N2C(C(=O)[O-])=C(C[n+]3ccccc3)CS[C@H]12)c1csc(N)n1)C(=O)O` [CAZ, ceftazidime], which Resistance pattern [1] is on record?
**A.** R

**Q.** And the “VITEK characterization (resistance range)” value (shortened to “VITEK characterization”) ([2]; K. pneumoniae ATCC 43816)?
**A.** S

**Q.** And the “VITEK characterization” value ([2]; K. pneumoniae ATCC BAA-1705)?
**A.** R

**Q.** What about the “VITEK characterization” value ([3]; A. baumannii ACC 00445) of the same molecule?
**A.** R

**Q.** What about the “VITEK characterization” value ([3]; A. baumannii ACC 00527) of the same molecule?
**A.** R

**Q.** What about the “VITEK characterization” value ([3]; A. baumannii ACC 00535) of the same molecule?
**A.** R

**Q.** And the “VITEK characterization” value ([3]; A. baumannii ATCC 17978)?
**A.** S

**Q.** And the “VITEK characterization” value ([3]; A. baumannii ATCC 19606)?
**A.** I

**Q.** And the “VITEK characterization” value ([4]; E. coli ACC 01001)?
**A.** S

**Q.** What about the “VITEK characterization” value ([4]; E. coli ATCC 25922) of the same molecule?
**A.** S

**Q.** For `C[C@@H](O)[C@H]1C(=O)N2C(C(=O)O)=C(SCCN=CN)C[C@H]12` [IMP, imipenem], which Resistance pattern [1] is on record?
**A.** R

**Q.** And the “VITEK characterization” value ([2]; K. pneumoniae ATCC 43816)?
**A.** S

**Q.** What about the “VITEK characterization” value ([2]; K. pneumoniae ATCC BAA-1705) of the same molecule?
**A.** R

**Q.** What about the “VITEK characterization” value ([3]; A. baumannii ACC 00445) of the same molecule?
**A.** R

**Q.** What about the “VITEK characterization” value ([3]; A. baumannii ACC 00527) of the same molecule?
**A.** R

**Q.** And the “VITEK characterization” value ([3]; A. baumannii ACC 00535)?
**A.** I

**Q.** What about the “VITEK characterization” value ([3]; A. baumannii ACC 01076) of the same molecule?
**A.** R

**Q.** And the “VITEK characterization” value ([3]; A. baumannii ACC 01077)?
**A.** R

**Q.** What about the “VITEK characterization” value ([3]; A. baumannii ATCC 17978) of the same molecule?
**A.** S

**Q.** What about the “VITEK characterization” value ([3]; A. baumannii ATCC 19606) of the same molecule?
**A.** S

**Q.** And the “VITEK characterization” value ([3]; A. baumannii NCTC 13420)?
**A.** I

**Q.** And the “VITEK characterization” value ([4]; E. coli ACC 01001)?
**A.** S

**Q.** And the “VITEK characterization” value ([4]; E. coli ATCC 25922)?
**A.** S

**Q.** What about the “VITEK characterization” value ([5]; S. aureus ATCC 29213) of the same molecule?
**A.** S

**Q.** And the “VITEK characterization” value ([5]; S. aureus ATCC 33591)?
**A.** R

**Q.** For `CO/N=C(\C(=O)N[C@@H]1C(=O)N2C(C(=O)O)=C(COC(C)=O)CS[C@H]12)c1csc(N)n1` [CTX, cefotaxime], which Resistance pattern [1] is on record?
**A.** R

**Q.** What about the “VITEK characterization” value ([2]; K. pneumoniae ATCC 43816) of the same molecule?
**A.** S

**Q.** What about the “VITEK characterization” value ([2]; K. pneumoniae ATCC BAA-1705) of the same molecule?
**A.** R

**Q.** What about the “VITEK characterization” value ([3]; A. baumannii ACC 00445) of the same molecule?
**A.** R

**Q.** And the “VITEK characterization” value ([3]; A. baumannii ACC 00527)?
**A.** R

**Q.** What about the “VITEK characterization” value ([3]; A. baumannii ACC 00535) of the same molecule?
**A.** R

**Q.** And the “VITEK characterization” value ([3]; A. baumannii ATCC 17978)?
**A.** S

**Q.** And the “VITEK characterization” value ([3]; A. baumannii ATCC 19606)?
**A.** I

**Q.** What about the “VITEK characterization” value ([4]; E. coli ACC 01001) of the same molecule?
**A.** S

**Q.** What about the “VITEK characterization” value ([4]; E. coli ATCC 25922) of the same molecule?
**A.** S

**Q.** Which “Cytotoxicity on HEK293T cells” value [6] does the source give for `C[S+](C)[O-]` [DMSO, dimethyl sulfoxide] here?
**A.** > 90%

**Q.** With “KWKLFKKIEKVGQNIRDGIIKAGPAVAVVGQATQIAK-NH2 [Cecropin A]” as the molecule, how does the “Stability after exposure to Proteinase-K” value [7] read?
**A.** major degradation

Source: publication PMC7988117, “OMN6 a novel bioengineered peptide for the treatment of multidrug resistant Gram negative bacteria” (Scientific Reports, 2021)
